Results reported in PMC8512853, “Synthesis, Bioactivity, Pharmacokinetic and Biomimetic Properties of Multi-Substituted Coumarin Derivatives” (Molecules, 2021).

What was measured:
[1] = ABTS radical scavenging assay; conditions: 6 min
Method: The ABTS radical cation scavenging assay is a decolorization assay frequently used as an antioxidant activity estimation protocol. […] The absorbance is measured at 734 nm and the antioxidant capacity is compared to a standard antioxidant solution, such as ascorbic acid.
For the evaluation of antioxidant activity, the scavenging capacities of all samples were measured via the ABTS assay, as previously described by Kontogiorgis et al. with some modifications. Briefly, an ethanolic standard ABTS solution (7 mM) was prepared by the addition of ABTS salt and potassium persulfate. […] Each sample was diluted in DMSO and tested in triplicate. The tested mixture contained 10–20 µL of sample and 990–980 µL of the ABTS solution, for a total volume of 1 ml. Blank samples contained equal amounts of DMSO instead of the coumarin analogues, and ascorbic acid was used as a reference sample for the final evaluation of the ABTS scavenging capacity. All mixtures were stored at room temperature to allow decolorization and measured after 6 min. The percentage reduction of the ABTS radical was evaluated according to the following Equation (3):(3) % Reduction=Control OD (mean)−Sample OD (mean)/Control OD (mean)×100

[2] = Inhibition of AAPH induced linoleic acid oxidation (lipid peroxidation)
Excerpt: AAPH induced linoleic acid oxidation has been developed as a quick and reliable antioxidant activity assay. It is based on the inhibition of linoleic acid oxidation, initiated by the thermal free radical producer 2,2′-azobis(2-amidinopropane) dihydrochloride (AAPH), providing a measure of how efficiently antioxidants protect against lipid oxidation in vitro. Oxidation of exogenous linoleic acid by AAPH is followed by UV spectrophotometry at 234 nm in a highly diluted sample [38].
For the reference sample in a UV cuvette, 10 μL of the test sample (100 μM diluted in DMSO), 10 μL linoleic acid (LA) (16 mM), and buffer solution (pH 7.4) were added to a final volume of 1ml. For the measurement sample, in a UV cuvette, 10 μL of test sample, 50 μL AAPH (40 mM), 10 μL LA, and buffer solution were added to a final volume of 1 mL. Standard and blank samples were prepared in the same way using DMSO (solvent) instead of the tested coumarin analogues. The absorbance was measured after 2 min at 37 °C at 234 nm. Results were obtained via the following Equation (5):(5) %Inhibition=(Standard−Blank)−(Reference Sample−Measurement Sample)/(Standard−Blank) × 100

[3] = MTT cell viability assay, HaCaT; format: cell-based, human; conditions: human, HaCaT cells, 100 μΜ, 24 h
Excerpt: The MTT assay (3- [4,5-dimethylthiazol-2-yl] -2,5 diphenyl tetrazole) is based on the conversion of MTT to formazan crystals by living cells, which determines mitochondrial activity. Since for most cell populations total mitochondrial activity is related to the number of viable cells, this assay is widely used to measure the in vitro cytotoxic effects of drugs on various cell lines or primary cells. The principle of the MTT assay is that for most viable cells the mitochondrial activity is stable, and therefore, an increase or decrease in the number of viable cells is linearly related to mitochondrial activity. The mitochondrial activity of the cells is reflected by the conversion of the MTT tetrazole salt to formazan crystals (bright purple), which can be solubilized (in this protocol with DMSO) for homogeneous measurement. Thus, any increase or decrease in the number of viable cells can be detected by measuring the formazan concentration reflected in the optical density (OD) measurement at 540 nm with a reference absorption of 720 nm.
All the compounds were tested for their cytotoxic activity against blank and control samples in the human epidermal keratinocyte line (HaCaT), at the concentration of 100 μΜ, and the results are presented in Table 4.
(§1) This protocol was used for the evaluation of cell viability and all the cell lines. It must be noted that this assay describes the count of cells that remain alive after the treatment. For the experimental procedure a standard solution of MTT 1mg/mL in PBS was prepared which after filtration ([…] filter (Millipore, Carrigtwohill, Ireland)) was stored in the dark (4–8 °C) until use. In a 96-well plate, HaCaT, A549 and A375 cells were seeded in a number of 30 × 10^4 cells/well for each evaluation series respectively. The cells were incubated (37 °C, 5% CO2) for 24 h, followed by the addition of the tested analogues (100 μM, diluted in DMEM) and another 24-h incubation. Next, appropriate amount of MTT was added in the tested wells and the plate returned to the incubator for the next 4 h for the formation of the formazan crystals. The formazan crystals were then redissolved by adding DMSO (100 μL) and stirring lightly for 40 min, after which the absorbance was measured in a plate reader at 540 nm with a reference absorbance of 720 nm.
(§2) All samples were tested in triplicate, against a control (only cells), blank (no cells), and positive control (100 μM standard silibinin solution was used as a “cell-killing” standard).

A549 cells = test: MTT cytotoxicity assay, A549; format: cell-based, human; conditions: Homo sapiens; A549, 100 μΜ, 24 h; read-out: Cell Toxicity A549 % (100 μΜ)
Method: (§3) Furthermore, the coumarin compounds synthesized in this study were also evaluated for their cytotoxicity against A549 (adenocarcinomic human alveolar basal epithelial cells) and A375 (human melanoma) cell lines.
as §1, §2

A375 cells = test: MTT cytotoxicity assay, A375; format: cell-based, human; conditions: for cytotoxicity at 100 µM: Homo sapiens, A-375, 24 h, A375, 100 μΜ, read-out: Cell Toxicity A375 % (100 μΜ)
Method: as §3, §1, §2

## Cc1c(-c2ccc(F)cc2)c(=O)oc2cccc(O)c12 [Compound 4f, 3-(4-fluorophenyl)-5-hydroxy-4-methyl-chromen-2-one]
[1]
  ABTS^•+ % (100 μΜ): 64.2%
[2]
  IC50: 86.8 µM
[3]
  viability at 24 h, 100 μM: 100%
A549 cells
  cytotoxicity at 100 µM: 62.5%
A375 cells
  cytotoxicity at 100 µM: 45.4%

## Cc1c(-c2ccc(O)cc2)c(=O)oc2ccccc12 [Compound 4h, 3-(4-hydroxyphenyl)-4-methyl-chromen-2-one]
[1]
  ABTS^•+ % (100 μΜ): 8.6%
[2]
  AAPH % inhibition (100 μΜ): no
[3]
  viability at 24 h, 100 μM: 100%
A549 cells
  cytotoxicity at 100 µM: 33.7%
A375 cells
  cytotoxicity at 100 µM: 12.6%

## Cc1c(-c2ccc(O)cc2)c(=O)oc2ccc(Br)cc12 [Compound 4i, 6-bromo-3-(4-hydroxyphenyl)-4-methyl-chromen-2-one]
[1]
  ABTS^•+ % (100 μΜ): no
[2]
  IC50: 70.7 µM
[3]
  viability at 24 h, 100 μM: 100%
A549 cells
  cytotoxicity at 100 µM: 21.7%
A375 cells
  cytotoxicity at 100 µM: 6.48%

## Cc1c(-c2ccc(O)cc2)c(=O)oc2ccc(Cl)cc12 [Compound 4j, 6-chloro-3-(4-hydroxyphenyl)-4-methyl-chromen-2-one]
[1]
  ABTS^•+ % (100 μΜ): no
[2]
  AAPH % inhibition (100 μΜ): 36.1%
[3]
  viability at 24 h, 100 μM: 73%
A549 cells
  cytotoxicity at 100 µM: 33.5%
A375 cells
  cytotoxicity at 100 µM: 11.9%

## Cc1c(-c2ccc(O)cc2)c(=O)oc2c(Br)cc(Br)cc12 [Compound 4k, 6,8-dibromo-3-(4-hydroxyphenyl)-4-methyl-chromen-2-one]
[1]
  ABTS^•+ % (100 μΜ): 27.8%
[2]
  IC50: 36.9 µM
[3]
  viability at 24 h, 100 μM: 100%
A549 cells
  cytotoxicity at 100 µM: 66.5%
A375 cells; 24 h
  Cell Toxicity A375 % (100 μΜ): no
